The values below are quoted from earlier work in patent US20120100040A1, “COMPOSITION FOR S[…]” (Bakteriefritt AS, priority 2009, published 2012).

The conditions of the series: rat, orally.

A word on the LD50: it is the dose at which mortality reaches 50%. Consider `CS(C)(=O)=O` [dimethylsulfone], for which the LD50 was above 5000 mg/kg.
